The values below are quoted from earlier work in patent US20170333424A1, “Amorphous Vortioxetine Hydrobromide” (Hexal AKTIENGESELLSCHAFT, priority 2014, published 2017).

The conditions of this series: class II means high permeability, but low solubility.

Structures can show the parent of a compound that is named as a salt.

Consider `Cc1ccc(Sc2ccccc2N2CCNCC2)c(C)c1` [vortioxetine hydrobromide], for which the BCS class result was “class II”.
